# Experimental data as given in article PMC4341984 (Biochemistry, 2014).
# Biological target: T1, UPPSBf (undecaprenyl pyrophosphate synthase) (Bacteroides fragilis, UniProt Q5LI17)
# T1 sequence (Q5LI17 1-244): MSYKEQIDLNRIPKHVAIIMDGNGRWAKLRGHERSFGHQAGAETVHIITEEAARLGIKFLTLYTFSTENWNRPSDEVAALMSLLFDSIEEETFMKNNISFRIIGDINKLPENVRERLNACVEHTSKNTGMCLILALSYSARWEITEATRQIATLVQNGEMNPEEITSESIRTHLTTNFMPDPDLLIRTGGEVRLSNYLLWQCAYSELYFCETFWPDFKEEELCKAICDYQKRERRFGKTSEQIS
# Experiment: fluorescence plate assay, inhibition of […] 2AA-GPP elongation
# Assay type: biochemical
smiles,measurement,value
O=P(O)(O)OP(=O)(O)O [diphosphate],IC50,1000 ± 200 µM
